This passage reports relative viability results from the supplement of paper PMC10307832.

What all share (assay): relative viability (nuclei count vs DMSO), 5 days (fraction); higher = more cells survive
Compound in the assay “Zebularine + Phenformin”: O=c1ncccn1[C@@H]1O[C@H](CO)[C@@H](O)[C@H]1O [Zebularine] + N=C(N)NC(=N)NCCc1ccccc1 [Phenformin] (partner 250 µM)
The gist of the method: (§1)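 Five library-drug doses in √10 steps were combined with a fixed anchor-drug dose, or a single drug was given alone, by pin tool to lung cancer cell lines in 1536-well plates the day after seeding. Nuclei were stained and counted after 5 days. Relative viability is the nuclei count in treated wells over that in vehicle wells, taken as the median of duplicate plates.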

Compound in the assay “Zebularine + Tozasertib”: O=c1ncccn1[C@@H]1O[C@H](CO)[C@@H](O)[C@H]1O [Zebularine] + Cc1cc(Nc2cc(N3CCN(C)CC3)nc(Sc3ccc(NC(=O)C4CC4)cc3)n2)n[nH]1 [Tozasertib] (partner 0.1 µM)
The procedure, abridged: as §1

Compound in the assay “Zebularine + Palbociclib”: O=c1ncccn1[C@@H]1O[C@H](CO)[C@@H](O)[C@H]1O [Zebularine] + CC(=O)c1c(C)c2cnc(Nc3ccc(N4CCNCC4)cn3)nc2n(C2CCCC2)c1=O [Palbociclib] (partner 0.5 µM)
The procedure, abridged:
as §1

Compound in the assay “Zebularine + Alpelisib”: O=c1ncccn1[C@@H]1O[C@H](CO)[C@@H](O)[C@H]1O [Zebularine] + Cc1nc(NC(=O)N2CCC[C@H]2C(N)=O)sc1-c1ccnc(C(C)(C)C(F)(F)F)c1 [Alpelisib] (partner 2 µM)
The procedure, abridged: as §1

For PC-3 [JPC-3], the relative viability with Zebularine + Phenformin (first compound 1 µM) is 0.461; in the assay with Zebularine + Phenformin (first compound 3.162 µM), 0.486; in the assay with Zebularine + Phenformin (first compound 10 µM) it was 0.437; with Zebularine + Phenformin (first compound 31.62 µM), 0.46; with Zebularine + Phenformin (first compound 100 µM), 0.396; with Zebularine + Tozasertib (first compound 1 µM), 0.963. Further, the relative viability is 0.924 in the assay with Zebularine + Tozasertib (first compound 3.162 µM); 0.485 in the assay with Zebularine + Tozasertib (first compound 10 µM); 0.668 in the assay with Zebularine + Tozasertib (first compound 31.62 µM); 0.473 in the assay with Zebularine + Tozasertib (first compound 100 µM); 0.537 with Zebularine + Palbociclib (first compound 1 µM); 0.535 with Zebularine + Palbociclib (first compound 3.162 µM). Also, the relative viability with Zebularine + Palbociclib (first compound 10 µM) worked out at 0.507; with Zebularine + Palbociclib (first compound 31.62 µM), 0.605; with Zebularine + Palbociclib (first compound 100 µM) it was 0.514; with Zebularine + Alpelisib (first compound 1 µM), 1.09; with Zebularine + Alpelisib (first compound 3.162 µM), 0.948; with Zebularine + Alpelisib (first compound 10 µM), 0.748. Further, the relative viability with Zebularine + Alpelisib (first compound 31.62 µM) is 0.824; with Zebularine + Alpelisib (first compound 100 µM), 0.469.

With PC-14, the relative viability in the assay with Zebularine + Phenformin (first compound 1 µM) came to 0.805; in the assay with Zebularine + Phenformin (first compound 3.162 µM) it was 0.28; in the assay with Zebularine + Phenformin (first compound 10 µM), 0.167; with Zebularine + Phenformin (first compound 31.62 µM), 0.124; in the assay with Zebularine + Phenformin (first compound 100 µM), 0.0723; with Zebularine + Tozasertib (first compound 1 µM) it was 0.479. Besides, the relative viability with Zebularine + Tozasertib (first compound 3.162 µM) is 0.513; in the assay with Zebularine + Tozasertib (first compound 10 µM), 0.1; in the assay with Zebularine + Tozasertib (first compound 31.62 µM), 0.0922; with Zebularine + Tozasertib (first compound 100 µM), 0.0781; in the assay with Zebularine + Palbociclib (first compound 1 µM), 0.627; with Zebularine + Palbociclib (first compound 3.162 µM) it was 0.417. In addition, the relative viability was found to be 0.175 with Zebularine + Palbociclib (first compound 10 µM); 0.103 with Zebularine + Palbociclib (first compound 31.62 µM); 0.118 with Zebularine + Palbociclib (first compound 100 µM); 1.04 with Zebularine + Alpelisib (first compound 1 µM); 0.953 with Zebularine + Alpelisib (first compound 3.162 µM); 0.232 with Zebularine + Alpelisib (first compound 10 µM). The relative viability with Zebularine + Alpelisib (first compound 31.62 µM) was 0.111; in the assay with Zebularine + Alpelisib (first compound 100 µM), 0.163.

As for RERF-LC-KJ, the relative viability was 0.403 with Zebularine + Phenformin (first compound 1 µM); 0.431 with Zebularine + Phenformin (first compound 3.162 µM); 0.35 with Zebularine + Phenformin (first compound 10 µM); 0.41 with Zebularine + Phenformin (first compound 31.62 µM); 0.406 in the assay with Zebularine + Phenformin (first compound 100 µM); 0.533 with Zebularine + Tozasertib (first compound 1 µM). Besides, the relative viability came to 0.433 with Zebularine + Tozasertib (first compound 3.162 µM); 0.458 with Zebularine + Tozasertib (first compound 10 µM); 0.553 with Zebularine + Tozasertib (first compound 31.62 µM); 0.473 with Zebularine + Tozasertib (first compound 100 µM); 1.09 in the assay with Zebularine + Palbociclib (first compound 1 µM); 1.01 in the assay with Zebularine + Palbociclib (first compound 3.162 µM). In addition, the relative viability in the assay with Zebularine + Palbociclib (first compound 10 µM) was 0.871; with Zebularine + Palbociclib (first compound 31.62 µM), 1.3; with Zebularine + Palbociclib (first compound 100 µM) it was 1.24; with Zebularine + Alpelisib (first compound 1 µM), 0.93; in the assay with Zebularine + Alpelisib (first compound 3.162 µM) it was 0.859; in the assay with Zebularine + Alpelisib (first compound 10 µM), 0.611. The relative viability in the assay with Zebularine + Alpelisib (first compound 31.62 µM) was determined as 1.03; in the assay with Zebularine + Alpelisib (first compound 100 µM), 0.753.

In the case of SK-LU-1, the relative viability with Zebularine + Phenformin (first compound 1 µM) was 0.633; with Zebularine + Phenformin (first compound 3.162 µM), 0.552; in the assay with Zebularine + Phenformin (first compound 10 µM), 0.313; with Zebularine + Phenformin (first compound 31.62 µM) it was 0.493; in the assay with Zebularine + Phenformin (first compound 100 µM) it was 0.33; in the assay with Zebularine + Tozasertib (first compound 1 µM) it was 0.378. In addition, the relative viability in the assay with Zebularine + Tozasertib (first compound 3.162 µM) was determined as 0.34; in the assay with Zebularine + Tozasertib (first compound 10 µM) it was 0.254; in the assay with Zebularine + Tozasertib (first compound 31.62 µM), 0.302; with Zebularine + Tozasertib (first compound 100 µM), 0.29; in the assay with Zebularine + Palbociclib (first compound 1 µM), 0.417; with Zebularine + Palbociclib (first compound 3.162 µM) it was 0.408. Besides, the relative viability with Zebularine + Palbociclib (first compound 10 µM) came out at 0.347; with Zebularine + Palbociclib (first compound 31.62 µM) it was 0.38; in the assay with Zebularine + Palbociclib (first compound 100 µM), 0.356; in the assay with Zebularine + Alpelisib (first compound 1 µM) it was 1.2; in the assay with Zebularine + Alpelisib (first compound 3.162 µM) it was 0.875; in the assay with Zebularine + Alpelisib (first compound 10 µM) it was 0.66. The relative viability is 0.745 with Zebularine + Alpelisib (first compound 31.62 µM) and 0.468 with Zebularine + Alpelisib (first compound 100 µM).

Take SK-MES-1: the relative viability in the assay with Zebularine + Phenformin (first compound 1 µM) was 0.755; with Zebularine + Phenformin (first compound 3.162 µM) it was 0.693; with Zebularine + Phenformin (first compound 10 µM), 0.45; with Zebularine + Phenformin (first compound 31.62 µM) it was 0.362; with Zebularine + Phenformin (first compound 100 µM), 0.226; with Zebularine + Tozasertib (first compound 1 µM), 1.02. The relative viability in the assay with Zebularine + Tozasertib (first compound 3.162 µM) came out at 0.991; with Zebularine + Tozasertib (first compound 10 µM), 0.599; in the assay with Zebularine + Tozasertib (first compound 31.62 µM) it was 0.611; in the assay with Zebularine + Tozasertib (first compound 100 µM), 0.248; with Zebularine + Palbociclib (first compound 1 µM), 0.346; with Zebularine + Palbociclib (first compound 3.162 µM) it was 0.359. Moreover, the relative viability amounted to 0.341 with Zebularine + Palbociclib (first compound 10 µM); 0.328 in the assay with Zebularine + Palbociclib (first compound 31.62 µM); 0.272 in the assay with Zebularine + Palbociclib (first compound 100 µM); 0.902 with Zebularine + Alpelisib (first compound 1 µM); 1.01 with Zebularine + Alpelisib (first compound 3.162 µM); 0.596 with Zebularine + Alpelisib (first compound 10 µM). In addition, the relative viability worked out at 0.575 in the assay with Zebularine + Alpelisib (first compound 31.62 µM) and 0.345 with Zebularine + Alpelisib (first compound 100 µM).

On to SW 1573, for which the relative viability in the assay with Zebularine + Phenformin (first compound 1 µM) is 0.379; in the assay with Zebularine + Phenformin (first compound 3.162 µM), 0.404; with Zebularine + Phenformin (first compound 31.62 µM), 0.406; with Zebularine + Phenformin (first compound 100 µM) it was 0.227; in the assay with Zebularine + Tozasertib (first compound 1 µM), 0.223; with Zebularine + Tozasertib (first compound 3.162 µM), 0.163. Besides, the relative viability with Zebularine + Tozasertib (first compound 31.62 µM) was determined as 0.137; with Zebularine + Tozasertib (first compound 100 µM), 0.148; with Zebularine + Palbociclib (first compound 1 µM), 0.451; in the assay with Zebularine + Palbociclib (first compound 3.162 µM) it was 0.435; with Zebularine + Palbociclib (first compound 31.62 µM), 0.391; with Zebularine + Palbociclib (first compound 100 µM) it was 0.38. Moreover, the relative viability with Zebularine + Alpelisib (first compound 1 µM) was 0.728; with Zebularine + Alpelisib (first compound 3.162 µM), 0.792; with Zebularine + Alpelisib (first compound 10 µM) it was 0.448; with Zebularine + Alpelisib (first compound 31.62 µM) it was 0.743; in the assay with Zebularine + Alpelisib (first compound 100 µM), 0.646.

UMC-11: the relative viability was 0.282 in the assay with Zebularine + Phenformin (first compound 1 µM); 0.344 with Zebularine + Phenformin (first compound 3.162 µM); 0.258 with Zebularine + Phenformin (first compound 10 µM); 0.327 in the assay with Zebularine + Phenformin (first compound 31.62 µM); 0.292 in the assay with Zebularine + Phenformin (first compound 100 µM); 0.191 with Zebularine + Tozasertib (first compound 1 µM). Further, the relative viability with Zebularine + Tozasertib (first compound 3.162 µM) was found to be 0.192; with Zebularine + Tozasertib (first compound 10 µM), 0.219; with Zebularine + Tozasertib (first compound 31.62 µM), 0.213; with Zebularine + Tozasertib (first compound 100 µM), 0.207; in the assay with Zebularine + Palbociclib (first compound 1 µM), 0.329; in the assay with Zebularine + Palbociclib (first compound 3.162 µM), 0.315. Moreover, the relative viability in the assay with Zebularine + Palbociclib (first compound 10 µM) worked out at 0.312; with Zebularine + Palbociclib (first compound 31.62 µM), 0.344; with Zebularine + Palbociclib (first compound 100 µM), 0.308; with Zebularine + Alpelisib (first compound 1 µM), 1.08; in the assay with Zebularine + Alpelisib (first compound 3.162 µM) it was 0.958; with Zebularine + Alpelisib (first compound 10 µM), 0.419. For the same cell line, the results for the relative viability with Zebularine + Alpelisib (first compound 31.62 µM) and in the assay with Zebularine + Alpelisib (first compound 100 µM) were 0.789 and 0.419, respectively.
